ChEMBL document CHEMBL5465560, “Selectivity Literature for EUbOPEN Chemogenomic Library” (2024)

Key:
[1] = target: T1, Serine/threonine-protein kinase ULK3 (Homo sapiens) (UniProt Q6PHR2); test: Selectivity interaction (KinomeScan (DiscoverX)) EUB0000666a ULK3; conditions: at 10 µM
T1 sequence (whole entry): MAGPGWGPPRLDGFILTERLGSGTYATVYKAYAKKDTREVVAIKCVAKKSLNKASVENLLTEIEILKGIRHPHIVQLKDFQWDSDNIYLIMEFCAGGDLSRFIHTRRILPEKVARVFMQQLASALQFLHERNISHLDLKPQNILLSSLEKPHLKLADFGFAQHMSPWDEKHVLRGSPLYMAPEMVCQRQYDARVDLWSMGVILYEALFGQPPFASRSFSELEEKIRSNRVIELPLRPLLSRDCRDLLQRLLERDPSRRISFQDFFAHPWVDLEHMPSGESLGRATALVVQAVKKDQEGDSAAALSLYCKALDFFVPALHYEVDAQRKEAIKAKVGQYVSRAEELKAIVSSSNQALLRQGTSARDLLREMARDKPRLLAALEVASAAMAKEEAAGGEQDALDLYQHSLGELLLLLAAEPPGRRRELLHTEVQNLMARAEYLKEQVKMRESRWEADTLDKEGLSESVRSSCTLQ

[2] = target: Serine/threonine-protein kinase Nek7 (Homo sapiens) (UniProt Q8TDX7); test: Selectivity interaction (KinomeScan (DiscoverX)) EUB0000229b NEK7; conditions: at 10 µM
Serine/threonine-protein kinase Nek7 (Homo sapiens), sequence (Q8TDX7 whole entry, looked up): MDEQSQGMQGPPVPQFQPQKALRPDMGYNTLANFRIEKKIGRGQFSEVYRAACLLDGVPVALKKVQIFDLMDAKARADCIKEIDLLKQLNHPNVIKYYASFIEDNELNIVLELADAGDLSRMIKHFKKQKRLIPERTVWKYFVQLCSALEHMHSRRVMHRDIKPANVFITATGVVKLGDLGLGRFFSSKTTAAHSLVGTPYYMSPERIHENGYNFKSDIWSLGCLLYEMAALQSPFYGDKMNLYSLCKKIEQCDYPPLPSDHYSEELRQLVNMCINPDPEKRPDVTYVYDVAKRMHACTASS

[3] = target: SRSF protein kinase 2 (Homo sapiens) (UniProt P78362); test: Selectivity interaction (KinomeScan (DiscoverX)) EUB0001079a SRPK2; conditions: at 1 µM
SRSF protein kinase 2 (Homo sapiens), sequence (P78362 whole entry, looked up): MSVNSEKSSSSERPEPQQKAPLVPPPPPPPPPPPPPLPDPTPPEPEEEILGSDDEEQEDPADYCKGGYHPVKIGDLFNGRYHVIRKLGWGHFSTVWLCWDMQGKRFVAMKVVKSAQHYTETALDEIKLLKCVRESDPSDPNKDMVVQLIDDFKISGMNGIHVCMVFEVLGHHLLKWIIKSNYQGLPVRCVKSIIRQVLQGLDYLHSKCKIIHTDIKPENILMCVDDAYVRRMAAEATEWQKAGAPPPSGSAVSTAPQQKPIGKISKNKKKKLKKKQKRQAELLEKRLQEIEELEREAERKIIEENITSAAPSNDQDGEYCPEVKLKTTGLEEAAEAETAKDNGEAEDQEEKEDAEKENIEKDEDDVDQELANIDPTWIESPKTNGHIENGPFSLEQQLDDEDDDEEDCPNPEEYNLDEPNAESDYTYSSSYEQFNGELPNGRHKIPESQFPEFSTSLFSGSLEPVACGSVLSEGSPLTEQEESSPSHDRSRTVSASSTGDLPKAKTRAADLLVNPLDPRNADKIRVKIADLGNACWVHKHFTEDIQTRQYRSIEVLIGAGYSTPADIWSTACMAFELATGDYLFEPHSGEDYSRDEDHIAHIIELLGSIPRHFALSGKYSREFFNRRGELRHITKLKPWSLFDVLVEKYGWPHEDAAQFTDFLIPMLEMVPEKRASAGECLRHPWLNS

[4] = target: cAMP-dependent protein kinase catalytic subunit alpha (Homo sapiens, UniProt P17612); test: Selectivity interaction (Ambit KINOMEscan and KiNATiv profiling in Jurkat cells) EUB0000090b PRKACA; assay type: cell-based; conditions: at 1 µM
[5] = target: Ribosomal protein S6 kinase alpha-1 (Homo sapiens, UniProt Q15418); test: Selectivity interaction (ActivX KiNativ screen (ex vivo kinase selectivity in human PBMCs)) EUB0001619a RPS6KA1; assay type: cell-based; conditions: PBMC, at 1 µM
Ribosomal protein S6 kinase alpha-1, sequence (Q15418 whole entry): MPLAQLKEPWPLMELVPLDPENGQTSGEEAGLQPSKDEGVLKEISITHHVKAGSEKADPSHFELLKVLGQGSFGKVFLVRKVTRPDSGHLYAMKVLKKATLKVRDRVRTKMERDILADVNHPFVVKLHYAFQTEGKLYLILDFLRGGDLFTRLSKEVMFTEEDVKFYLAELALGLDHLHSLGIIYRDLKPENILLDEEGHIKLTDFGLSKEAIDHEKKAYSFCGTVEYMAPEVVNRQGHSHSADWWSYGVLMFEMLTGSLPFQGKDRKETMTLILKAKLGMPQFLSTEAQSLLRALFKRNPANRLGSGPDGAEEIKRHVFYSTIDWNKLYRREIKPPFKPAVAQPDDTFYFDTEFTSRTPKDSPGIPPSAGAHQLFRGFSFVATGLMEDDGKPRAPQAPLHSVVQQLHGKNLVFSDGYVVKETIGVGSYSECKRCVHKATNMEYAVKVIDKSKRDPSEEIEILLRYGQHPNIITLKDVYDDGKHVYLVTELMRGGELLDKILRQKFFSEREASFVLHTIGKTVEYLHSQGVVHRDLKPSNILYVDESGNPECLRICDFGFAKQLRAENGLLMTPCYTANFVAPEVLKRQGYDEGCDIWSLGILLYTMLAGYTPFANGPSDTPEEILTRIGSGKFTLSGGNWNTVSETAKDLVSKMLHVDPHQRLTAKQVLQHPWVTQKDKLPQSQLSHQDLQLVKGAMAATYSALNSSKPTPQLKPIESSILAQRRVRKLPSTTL

[6] = target: Mitogen-activated protein kinase 3 (Homo sapiens, UniProt P27361); test: Selectivity interaction (KinomeScan (DiscoverX)) EUB0000655a MAPK3; conditions: at 10 µM
Mitogen-activated protein kinase 3, sequence (P27361 whole entry): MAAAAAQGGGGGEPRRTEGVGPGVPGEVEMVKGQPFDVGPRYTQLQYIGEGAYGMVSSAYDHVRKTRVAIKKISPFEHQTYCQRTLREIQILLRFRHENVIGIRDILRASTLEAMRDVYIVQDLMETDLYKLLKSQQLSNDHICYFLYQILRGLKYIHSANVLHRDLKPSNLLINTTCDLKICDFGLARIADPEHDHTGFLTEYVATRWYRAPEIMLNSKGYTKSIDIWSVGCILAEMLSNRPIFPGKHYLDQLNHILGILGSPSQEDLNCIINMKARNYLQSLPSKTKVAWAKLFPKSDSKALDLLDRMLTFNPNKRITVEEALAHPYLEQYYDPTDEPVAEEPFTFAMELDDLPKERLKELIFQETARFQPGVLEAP

[7] = target: Cannabinoid receptor 2 (Homo sapiens) (UniProt P34972); test: Selectivity interaction (Panel of kinases, GPCRs, ion channels and transporters (enzymatic assay)) EUB0000223bCl CNR2
Cannabinoid receptor 2 (Homo sapiens), sequence (P34972 whole entry): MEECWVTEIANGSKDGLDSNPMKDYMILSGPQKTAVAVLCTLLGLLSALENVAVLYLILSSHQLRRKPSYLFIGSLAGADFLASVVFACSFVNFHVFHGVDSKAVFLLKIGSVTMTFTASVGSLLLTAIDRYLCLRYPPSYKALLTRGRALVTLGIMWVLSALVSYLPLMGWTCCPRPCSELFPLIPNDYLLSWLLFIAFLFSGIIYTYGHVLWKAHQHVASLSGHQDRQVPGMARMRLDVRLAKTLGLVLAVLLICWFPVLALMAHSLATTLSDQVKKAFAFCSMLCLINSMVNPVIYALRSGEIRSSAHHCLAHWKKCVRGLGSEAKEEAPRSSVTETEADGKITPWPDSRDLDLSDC

[8] = target: T2, Mitogen-activated protein kinase kinase kinase 3 (Homo sapiens) (UniProt Q99759); test: Selectivity interaction (LanthaScreen Eu Kinase Binding Assay) EUB0001632a MAP3K3; conditions: at 10 µM
T2 sequence (whole entry): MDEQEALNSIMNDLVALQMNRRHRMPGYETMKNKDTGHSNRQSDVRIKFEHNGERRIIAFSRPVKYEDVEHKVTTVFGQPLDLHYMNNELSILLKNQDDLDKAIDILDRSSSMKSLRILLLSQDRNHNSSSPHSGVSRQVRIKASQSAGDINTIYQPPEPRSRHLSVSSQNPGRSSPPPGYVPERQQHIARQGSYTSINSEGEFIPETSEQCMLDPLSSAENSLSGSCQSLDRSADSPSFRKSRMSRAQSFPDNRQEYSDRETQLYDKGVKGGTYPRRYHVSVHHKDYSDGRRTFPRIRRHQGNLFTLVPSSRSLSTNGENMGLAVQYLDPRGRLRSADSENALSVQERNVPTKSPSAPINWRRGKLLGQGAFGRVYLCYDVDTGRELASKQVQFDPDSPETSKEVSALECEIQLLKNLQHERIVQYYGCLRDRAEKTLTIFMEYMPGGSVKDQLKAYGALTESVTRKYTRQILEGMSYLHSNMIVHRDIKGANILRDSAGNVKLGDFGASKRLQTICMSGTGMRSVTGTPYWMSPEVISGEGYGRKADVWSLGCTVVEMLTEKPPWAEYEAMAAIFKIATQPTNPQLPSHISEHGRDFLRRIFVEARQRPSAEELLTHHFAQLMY

[9] = target: Dual specificity protein kinase CLK2 (Homo sapiens, UniProt P49760); test: Selectivity interaction (Kinase panel (Z-LYTE Assay)) EUB0001632a CLK2; conditions: at 10 µM
Dual specificity protein kinase CLK2, sequence (P49760 whole entry, looked up): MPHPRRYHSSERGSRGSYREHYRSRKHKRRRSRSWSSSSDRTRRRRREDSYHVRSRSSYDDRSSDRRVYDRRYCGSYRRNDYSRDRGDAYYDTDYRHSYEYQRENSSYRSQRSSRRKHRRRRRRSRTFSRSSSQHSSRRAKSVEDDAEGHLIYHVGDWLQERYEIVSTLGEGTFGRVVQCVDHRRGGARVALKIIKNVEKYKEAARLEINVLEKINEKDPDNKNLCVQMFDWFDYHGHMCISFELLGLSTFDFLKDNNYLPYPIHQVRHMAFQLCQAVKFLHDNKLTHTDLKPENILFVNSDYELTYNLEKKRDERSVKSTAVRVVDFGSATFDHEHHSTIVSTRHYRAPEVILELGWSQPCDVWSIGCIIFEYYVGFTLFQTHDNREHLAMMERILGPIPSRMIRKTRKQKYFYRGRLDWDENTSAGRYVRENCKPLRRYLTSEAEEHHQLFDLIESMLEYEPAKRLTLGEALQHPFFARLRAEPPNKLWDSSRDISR

[10] = target: T3, Histone-lysine N-methyltransferase EHMT2 (Homo sapiens) (UniProt Q96KQ7); test: Selectivity interaction (Methyltransferase screen (radiometric assays, panel of 8 PRMTs, 21 protein lysine methyltransferases, 3 DNA methyltransferases, and one RNA methyltransferase)) EUB0000271b EHMT2
T3 sequence (whole entry): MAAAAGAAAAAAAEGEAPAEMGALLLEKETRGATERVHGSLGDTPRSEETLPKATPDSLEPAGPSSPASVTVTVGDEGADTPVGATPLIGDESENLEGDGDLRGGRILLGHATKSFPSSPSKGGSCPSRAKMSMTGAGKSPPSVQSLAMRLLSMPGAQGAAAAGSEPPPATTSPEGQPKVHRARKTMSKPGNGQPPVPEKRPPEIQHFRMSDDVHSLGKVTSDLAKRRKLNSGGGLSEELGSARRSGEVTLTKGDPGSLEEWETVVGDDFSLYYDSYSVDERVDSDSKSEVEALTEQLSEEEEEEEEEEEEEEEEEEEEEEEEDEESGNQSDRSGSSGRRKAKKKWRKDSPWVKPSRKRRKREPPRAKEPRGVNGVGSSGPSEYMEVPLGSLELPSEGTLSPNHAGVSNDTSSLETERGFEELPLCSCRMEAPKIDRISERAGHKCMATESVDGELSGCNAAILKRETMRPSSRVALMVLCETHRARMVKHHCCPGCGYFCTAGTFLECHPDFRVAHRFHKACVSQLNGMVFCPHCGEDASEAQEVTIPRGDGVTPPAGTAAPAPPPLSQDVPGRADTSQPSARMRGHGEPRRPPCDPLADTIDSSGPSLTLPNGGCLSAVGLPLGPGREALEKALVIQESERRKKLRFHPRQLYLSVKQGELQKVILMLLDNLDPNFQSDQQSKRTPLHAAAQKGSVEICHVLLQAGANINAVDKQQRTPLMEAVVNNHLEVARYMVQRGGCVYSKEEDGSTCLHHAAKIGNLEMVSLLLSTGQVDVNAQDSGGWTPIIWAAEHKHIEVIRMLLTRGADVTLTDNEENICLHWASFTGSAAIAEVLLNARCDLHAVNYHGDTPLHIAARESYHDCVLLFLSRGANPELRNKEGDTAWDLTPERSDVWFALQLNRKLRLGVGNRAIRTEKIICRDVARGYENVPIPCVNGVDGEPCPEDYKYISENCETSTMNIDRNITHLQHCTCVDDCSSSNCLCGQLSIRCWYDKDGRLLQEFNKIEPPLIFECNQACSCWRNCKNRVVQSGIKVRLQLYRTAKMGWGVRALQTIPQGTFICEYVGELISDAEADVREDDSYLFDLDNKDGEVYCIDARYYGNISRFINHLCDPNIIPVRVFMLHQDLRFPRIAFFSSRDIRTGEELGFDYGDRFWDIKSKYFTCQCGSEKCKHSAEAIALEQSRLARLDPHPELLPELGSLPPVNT

Compound `O=C(NOC[C@H](O)CO)c1ccc(F)c(F)c1Nc1ccc(I)cc1F` has a % of control [1] of 89%.
With `COc1cc(N(C)c2ccnc3ccc(C(F)(F)F)cc23)cc(OC)c1OC` the % binding [2] was 100%.
Work on `Nc1cnc(N2CCc3cc(S(=O)(=O)Nc4c(F)cc(Cl)cc4F)cc(N4CCCC4=O)c32)nc1` [TP-020n] yielded a % of control [3] of 100%.
Compound `CN(C)C/C=C/C(=O)Nc1ccc(C(=O)N2CCCC(Nc3ncc(Cl)c(-c4c[nH]c5ccccc45)n3)C2)cc1` (stereo unspecified) has a % of control [4] of 100%.
For `N#Cc1cccc(-c2c[nH]c3ncnc(N4CCOCC4)c23)c1`, the % of inhibition [5] was -1%.
With `CN(C)CCOc1ccc(-c2nc(-c3ccncc3)c(-c3ccc4c(c3)CC/C4=N\O)[nH]2)cc1` the % of control [6] was 100%.
In the case of `COc1cc(C(=O)N2CC[C@@H](O)[C@@H](N)C2)cc2nc(-c3cc4ccccc4n3CC3CC3)n(C)c12`, the pXC50 [7] is reported as < 4.5 M.
`Cn1cc(-n2cnc3c(NCc4nc5cc(Cl)c(Cl)cc5[nH]4)nc(N4CCOCC4)nc32)cn1` was tested, and the % of inhibition [8] was -26.4% and the % of control [9] was 4.94%.
Work on `Cc1cc(C)cc([C@@H]2c3cc(C)ccc3NC(=O)CN2C(=O)c2ccc(Br)s2)c1` yielded a % of activity ([10]; at 1 µM) of 96% and a % of activity ([10]; at 10 µM) of 96.3%.
